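Test compounds were applied to cells in 96-well plates for 48 hours at 5 doses. Here, GI50 denotes the concentration required for 50% inhibition of growth. The concentration for full growth arrest is given as TGI.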
What was measured:
Assay in all cases: growth of human tumour cells (NCI), 48 h
HT29 colon = test system: HT29 colon
SF-295 CNS = test system: SF-295 CNS
COLO 205 colon = test system: COLO 205 colon
HL-60(TB) leukemia = test system: HL-60(TB) leukemia
MOLT-4 leukemia = test system: MOLT-4 leukemia
UO-31 renal = test system: UO-31 renal
786-0 renal = test system: 786-0 renal
HCC-2998 colon = test system: HCC-2998 colon
SR leukemia = test system: SR leukemia
OVCAR-4 ovarian = test system: OVCAR-4 ovarian
SK-MEL-2 melanoma = test system: SK-MEL-2 melanoma
SK-MEL-5 melanoma = test system: SK-MEL-5 melanoma
KM12 colon = test system: KM12 colon
MCF7 breast = test system: MCF7 breast
HCT-15 colon = test system: HCT-15 colon
RPMI-8226 leukemia = test system: RPMI-8226 leukemia
NCI-H226 lung = test system: NCI-H226 lung
UACC-257 melanoma = test system: UACC-257 melanoma
MDA-MB-231 breast = test system: MDA-MB-231 breast
SW-620 colon = test system: SW-620 colon
LOX IMVI melanoma = test system: LOX IMVI melanoma
M14 melanoma = test system: M14 melanoma
ACHN renal = test system: ACHN renal
RXF 393 renal = test system: RXF 393 renal
HOP-92 NSCLC = test system: HOP-92 NSCLC
MALME-3M melanoma = test system: MALME-3M melanoma
MDA-MB-435 = test system: MDA-MB-435
NCI/ADR-RES ovarian = test system: NCI/ADR-RES ovarian
PC-3 prostate = test system: PC-3 prostate

## O=C(CCCCCCCn1cc(-c2cccnc2)nn1)Nc1ccccc1-c1ccccc1
HT29 colon
  GI50: 0.506 µM
  TGI: > 100 µM
SF-295 CNS
  GI50: 0.403 µM
COLO 205 colon
  GI50: 1.92 µM
  TGI: 49.7 µM
HL-60(TB) leukemia
  GI50: 4.74 µM
  TGI: 29.1 µM
MOLT-4 leukemia
  GI50: 2.31 µM
  TGI: 23.4 µM
UO-31 renal
  GI50: 5.24 µM
  TGI: 47 µM
786-0 renal
  GI50: 4.13 µM
  TGI: > 100 µM
HCC-2998 colon
  GI50: 0.385 µM
  TGI: > 61.8 µM
SR leukemia
  GI50: 3.65 µM
  TGI: 64.8 µM
OVCAR-4 ovarian
  GI50: 10.9 µM
  TGI: > 100 µM
SK-MEL-2 melanoma
  GI50: 5.52 µM
  TGI: 38.1 µM
SK-MEL-5 melanoma
  GI50: 2.25 µM
  TGI: 15.1 µM
KM12 colon
  GI50: 0.607 µM
  TGI: 24.2 µM
MCF7 breast
  GI50: 3.36 µM
  TGI: 51.5 µM
HCT-15 colon
  GI50: 0.231 µM
  TGI: > 100 µM
RPMI-8226 leukemia
  GI50: 0.401 µM
  TGI: > 77.9 µM
NCI-H226 lung
  GI50: 14.5 µM
  TGI: 50.2 µM
UACC-257 melanoma
  GI50: 7.75 µM
  TGI: 24.9 µM
MDA-MB-231 breast
  GI50: 21.3 µM
  TGI: > 100 µM
SW-620 colon
  GI50: 0.0526 µM
  TGI: > 100 µM
LOX IMVI melanoma
  GI50: 4.05 µM
  TGI: > 100 µM
M14 melanoma
  GI50: 0.0914 µM
  TGI: 16.5 µM
ACHN renal
  GI50: 9.39 µM
  TGI: > 100 µM
RXF 393 renal
  GI50: > 43.6 µM
  TGI: > 100 µM
HOP-92 NSCLC
  GI50: 31.8 µM
  TGI: > 100 µM
MALME-3M melanoma
  GI50: 5.71 µM
  TGI: 41.8 µM
MDA-MB-435
  GI50: 0.305 µM
  TGI: 13.2 µM
NCI/ADR-RES ovarian
  GI50: 0.0688 µM
  TGI: 27.4 µM
PC-3 prostate
  GI50: 0.43 µM
  TGI: 36.7 µM
